According to patent US9693556B2, “Herbicidal pyridazinone derivatives” (SYNGENTA LIMITED, priority 2011, dated 2017):

What was measured:
Assay type in all cases: in vivo
[1] = tested on: Ipomoea hederacea (IPOHE); assay: Post-emergence herbicidal glasshouse test on Ipomoea hederacea; conditions: post-emergence; 1000 g/h; evaluated after 13 days
In short: (§1)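 Plants sprayed 1 day (pre-emergence) or 8 days (post-emergence) after sowing with compound at 1000 g/h in acetone/water 50:50 with 0.5% Tween 20; glasshouse 24/16° C, 14 h light, 65% humidity. Damage assessed after 13 days, scored 1–5 (5 = 80-100%, 1 = 0-19%).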

[2] = tested on: Ipomoea hederacea (IPOHE); assay: Pre-emergence herbicidal glasshouse test on Ipomoea hederacea; conditions: pre-emergence; 1000 g/h; evaluated after 13 days
In short: as §1

[3] = tested on: Amaranthus retoflexus (AMARE); assay: Post-emergence herbicidal glasshouse test on Amaranthus retoflexus; conditions: post-emergence; 1000 g/h; evaluated after 13 days
In short: as §1

[4] = tested on: Setaria faberi (SETFA); assay: Post-emergence herbicidal glasshouse test on Setaria faberi; conditions: post-emergence; 1000 g/h; evaluated after 13 days
In short: as §1

[5] = tested on: Echinochloa crus-galli (ECHCG); assay: Pre-emergence herbicidal glasshouse test on Echinochloa crus-galli; conditions: pre-emergence; 1000 g/h; evaluated after 13 days
In short: as §1

[6] = tested on: Alopecurus myosuroides (ALOMY); assay: Pre-emergence herbicidal glasshouse test on Alopecurus myosuroides; conditions: pre-emergence; 1000 g/h; evaluated after 13 days
In short: as §1

[7] = tested on: Amaranthus retoflexus (AMARE); assay: Pre-emergence herbicidal glasshouse test on Amaranthus retoflexus; conditions: pre-emergence; 1000 g/h; evaluated after 13 days
In short: as §1

[8] = tested on: Solanum nigrum (SOLNI); assay: Pre-emergence herbicidal glasshouse test on Solanum nigrum; conditions: pre-emergence; 1000 g/h; evaluated after 13 days
In short: as §1

[9] = tested on: Setaria faberi (SETFA); assay: Pre-emergence herbicidal glasshouse test on Setaria faberi; conditions: pre-emergence; 1000 g/h; evaluated after 13 days
In short: as §1

[10] = tested on: Echinochloa crus-galli (ECHCG); assay: Post-emergence herbicidal glasshouse test on Echinochloa crus-galli; conditions: post-emergence; 1000 g/h; evaluated after 13 days
In short: as §1

[11] = tested on: Solanum nigrum (SOLNI); assay: Post-emergence herbicidal glasshouse test on Solanum nigrum; conditions: post-emergence; 1000 g/h; evaluated after 13 days
In short: as §1

[12] = tested on: Alopecurus myosuroides (ALOMY); assay: Post-emergence herbicidal glasshouse test on Alopecurus myosuroides; conditions: post-emergence; 1000 g/h; evaluated after 13 days
In short: as §1

| Compound | POST Application IPOHE herbicidal damage (five point scale) [1] | PRE Application IPOHE herbicidal damage (five point scale) [2] | POST Application AMARE herbicidal damage (five point scale) [3] | POST Application SETFA herbicidal damage (five point scale) [4] | PRE Application ECHCG herbicidal damage (five point scale) [5] | PRE Application ALOMY herbicidal damage (five point scale) [6] | PRE Application AMARE herbicidal damage (five point scale) [7] | PRE Application SOLNI herbicidal damage (five point scale) [8] | PRE Application SETFA herbicidal damage (five point scale) [9] | POST Application ECHCG herbicidal damage (five point scale) [10] | POST Application SOLNI herbicidal damage (five point scale) [11] | POST Application ALOMY herbicidal damage (five point scale) [12] |
| --- | --- | --- | --- | --- | --- | --- | --- | --- | --- | --- | --- | --- |
| Cc1c(-c2cnn(C(C)C)c(=O)c2O)ccc(S(C)(=O)=O)c1C1=NOCC1 [Compound 1.012] | 5 (5=80-100% damage) | 4 (4=60-79% damage) | 5 (5=80-100% damage) | 5 (5=80-100% damage) | 5 (5=80-100% damage) | 4 (4=60-79% damage) | 5 (5=80-100% damage) | 5 (5=80-100% damage) | 4 (4=60-79% damage) | 5 (5=80-100% damage) | 5 (5=80-100% damage) | 5 (5=80-100% damage) |
| CCS(=O)(=O)c1ccccc1-c1cnn(COC)c(=O)c1O [Compound 2.004] | 5 (5=80-100% damage) | 4 (4=60-79% damage) | 5 (5=80-100% damage) | 5 (5=80-100% damage) | 5 (5=80-100% damage) | 5 (5=80-100% damage) | 5 (5=80-100% damage) | 5 (5=80-100% damage) | 5 (5=80-100% damage) | 5 (5=80-100% damage) | 5 (5=80-100% damage) | 3 (3=40-59% damage) |
| CCCCS(=O)(=O)c1ccccc1-c1cnn(C)c(=O)c1O [Compound 1.051] | 4 (4=60-79% damage) | 1 (1=0-19% damage) | 5 (5=80-100% damage) | 2 (2=20-39% damage) | 4 (4=60-79% damage) | 2 (2=20-39% damage) | 5 (5=80-100% damage) | 1 (1=0-19% damage) | 1 (1=0-19% damage) | 2 (2=20-39% damage) | 5 (5=80-100% damage) | 1 (1=0-19% damage) |
| Cc1nc(C(C)F)ccc1-c1cnn(C)c(=O)c1O (stereo not drawn) [Compound 1.068] | 5 (5=80-100% damage) | 3 (3=40-59% damage) | 5 (5=80-100% damage) | 3 (3=40-59% damage) | 5 (5=80-100% damage) | 2 (2=20-39% damage) | 4 (4=60-79% damage) | 4 (4=60-79% damage) | 2 (2=20-39% damage) | 5 (5=80-100% damage) | 5 (5=80-100% damage) | 3 (3=40-59% damage) |
| COCCOCc1nc(C(F)(F)F)ccc1-c1cnn(C)c(=O)c1O [Compound 1.072] | 5 (5=80-100% damage) | 5 (5=80-100% damage) | 5 (5=80-100% damage) | 5 (5=80-100% damage) | 5 (5=80-100% damage) | 4 (4=60-79% damage) | 5 (5=80-100% damage) | 5 (5=80-100% damage) | 5 (5=80-100% damage) | 5 (5=80-100% damage) | 5 (5=80-100% damage) | 4 (4=60-79% damage) |
| CC[S+]([O-])c1ccccc1-c1cnn(COC)c(=O)c1O (stereo not drawn) [Compound 2.003] | 4 (4=60-79% damage) | 1 (1=0-19% damage) | 5 (5=80-100% damage) | 4 (4=60-79% damage) | 4 (4=60-79% damage) | 3 (3=40-59% damage) | 5 (5=80-100% damage) | 1 (1=0-19% damage) | 4 (4=60-79% damage) | 5 (5=80-100% damage) | 5 (5=80-100% damage) | 3 (3=40-59% damage) |
| COCn1ncc(-c2ccc(F)cc2S(C)(=O)=O)c(O)c1=O [Compound 2.006] | 5 (5=80-100% damage) | 5 (5=80-100% damage) | 5 (5=80-100% damage) | 5 (5=80-100% damage) | 5 (5=80-100% damage) | 5 (5=80-100% damage) | 5 (5=80-100% damage) | 5 (5=80-100% damage) | 5 (5=80-100% damage) | 5 (5=80-100% damage) | 5 (5=80-100% damage) | 5 (5=80-100% damage) |
| Cn1ncc(-c2cc(OC(F)(F)F)ccc2Cl)c(O)c1=O [Compound 1.100] | 2 (2=20-39% damage) | 1 (1=0-19% damage) | 2 (2=20-39% damage) | 1 (1=0-19% damage) | 1 (1=0-19% damage) | 1 (1=0-19% damage) | 1 (1=0-19% damage) | 1 (1=0-19% damage) | 1 (1=0-19% damage) | 1 (1=0-19% damage) | 2 (2=20-39% damage) | 1 (1=0-19% damage) |
